Experimental findings from patent publication US20250084128A1, “ANTIVIRAL […]-STAPLED SARS-CoV-2 PEPTIDE-C[…] USES THEREOF” (priority 2021, published 2025) are described below.

The test system of the experiment is pseudotyped SARS-CoV-2 virus. It counts as cell-based.
On to “DISGINASVVNIQKEI8RLNEVAXNLNESLIDLQELGK [SEQ ID NO: 13]”, for which the differential antiviral activity result was “moderate activity”.

As to “DISGINASVVNIQKEIDR8NEVAKNXNESLIDLQELGK [SEQ ID NO: 15]”, the differential antiviral activity result was “little to no activity”. The same measure for “DISGINASVVNIQK8IDRLNEXAKNLNESLIDLQELGK [SEQ ID NO: 11]”: “little to no activity”. With “DISGINASVVNIQKEID8LNEVAKXLNESLIDLQELGK [SEQ ID NO: 14]”, the differential antiviral activity entry was “little to no activity”. In the case of “DISGINASVVNIQKEIDRL8EVAKNLXESLIDLQELGK [SEQ ID NO: 16]” it was “moderate activity”.
